Data on six molecules can be found in US6747062B2, “Regulation of wound healing by nitric oxide” (New York Society for the Ruptured and Crippled Maintaining …, priority 1994, dated 2004).

A short description of data set [1]: Other systemic effects and post mortem examination. The format is in vivo, rat. The conditions noted are these: for systemic changes (palsies, coat, dyspnoea, death, post mortem lesions): 3 weeks feeding. On the procedure:
(§1) Rat model system: The rat achilles tendon model is used to test model compounds for biological activity i.e. the ability to promote or inhibit wound healing in vivo. As described in Example 1 below, one Achilles tendon in each rat is transsected surgically, and allowed to heal for periods ranging from 6 hours to 14 days. At each time point, the degree of healing is first assessed by measuring walking speed. The animals are then sacrificed and the tendons are excised and subjected to biomechanical testing and morphological and immunochemical analysis. NOS activity is measured in the excised tendons as above. Finally, body and muscle weight are monitored, and systemic and local toxicity are assessed by macroscopic and microscopic post-mortem examination. It will be understood by a skilled practitioner that any small mammal suitable for testing may be used, including rats, mice, rabbits, guinea pigs, and the like.
(§2) In the following NOS inhibition experiments, animals were fed the indicated chemicals at 1 mg/ml in their drinking water ad libitum for four days prior to surgical division of the right Achilles tendon and throughout the post-operative experimental period, with the exception of experiment (c)*, where the drugs were given from the immediate post-operative period:
(§3) (d) 3 weeks D-NAME (n=8), L-NAME (n=8), L-arginine (n=8), walking speed assessments at days 1,4,8,11,15,18,22, biomechanical assessment, muscle weight and autopsy at day 22.

The nature of data set [2]: Body and muscle weight of rats fed the chemicals. The format is in vivo, rat. Conditions: for increase of weight: over 22 days, same dose. On the procedure: as §2, §3
All animals were weighed prior to surgery, at weekly intervals, and at sacrifice. After sacrifice the right triceps of rats fed D-NAME (n=8), L-NAME (n=8) or L-arginine (n=8) for three weeks was harvested, weighed for wet weight, lyophilized for dry weight and the water content calculated.

Data set [3] concerns cultured bovine chondrocytes. As to the kind of experiment: NO2- release from cultured bovine chondrocytes (Greiss reaction). Type of data set: cell-based. Conditions: for release of NO2-: endotoxin at 1 μg/ml, no constitutive release.
The nature of data set [4]: Walking speed assessment in a confined walkway. Type of data set: in vivo, rat. The procedure:
as §2
The animals were tested in a confined walkway with a dark shelter at the end. Each rat was held by its chest at the start of the walkway and then allowed to walk/run to the dark shelter at the end of the walkway. The time taken for the rat to cover the first half (21.5 cm) and the total length (43 cm) of the walkway was measured by individuals blinded to the treatment groups.

In data set [5] the test system is surgically divided Achilles tendon. The experiment in a line: Rat Achilles tendon healing model with nitric oxide synthase inhibition (morphology, biomechanics). The format is in vivo. Conditions: for distance separating the cut ends of the healing tendon (5-8 mm): 1 mg/ml in drinking water. On the procedure: as §1, §2
(a) 1 week D-NAME (n=9) vs L-NAME (n=11); walking speed and biomechanical analyses at day 7. […]
The rats were housed in beta-chip-lined plastic cages, two animals per cage, with a 12-hour light, 12 hour dark cycle in an animal care facility and fed rat chow and water ad libitum. Anaesthesia was achieved by intraperitoneal injection of 80 mg/kg ketamine (Park Davis, Morris Plains, N.J.) and 5 mg/kg xylazine (Miles Inc, Shawnee Mission, Kans.). All surgical procedures were performed under sterile conditions with the aid of 2.5x microsurgical loops. The surgical procedure was similar to that previously outlined. A 3 cm midline incision was made over the right Achilles tendon and the Achilles tendon and plantaris were isolated from the surrounding fascia. The underlying fascia was disrupted by spreading with a pair of small straight scissors. The tendinous portion of the plantaris was removed and the Achilles tendon was divided cleanly in its mid-substance, 0.5 cm from its calcaneal insertion with a scalpel. The skin was then sutured with two simple nylon sutures of 5-0 ethilon monofilament nylon on a PC-1 cutting needle (Ethicon Inc, N.J.). No operation was performed on the left, uninjured, hind limb. No cast or dressings were applied and the animals were unrestricted during the healing phase. The animals were sacrificed by CO2 inhalation.
One hundred and fifty two harvested lower limbs were placed in phosphate buffered saline (PBS), frozen and stored at −70° C. for an average of seven days prior to testing. On the day prior to testing the specimens were thawed. All extraneous soft and hard tissues were removed by blunt and sharp dissection from the Achilles tendon, formerly intramuscular tendinous fibers and the hind foot. Area measurements of the uninjured and sham operated tendons were made with an area micrometer (Mitutoyo, Tokyo, Japan). Length measurements were made with a 0.02 mm calibrated caliper (Draper, Japan). The formerly intramuscular tendinous fibers were then secured between two strips of white labelling tape with Thick Gel Super Glue® (Super Glue Corporation, N.Y.) such that the distal edge of the tape was 1.0 cm from the calcaneal insertion. The calcaneus was fixed at 45° in an adjustable rubber-gripped clamp (Panavise, Sparks, Nev.). Throughout the procedure care was taken to ensure that neither the Super Glue® nor the self curing plastic contaminated the tendon proper and the specimens were kept moist by application of PBS. Mechanical testing was carried out using a MTS 810 material test system (MTS Systems Corporation, PN). Each specimen underwent a constant velocity ramp to failure test at 1 cm/sec (≈100%/sec). […]

Where [6] appears, read: fed from the immediate post-operative period, day 15.

With `COC(=O)[C@H](N)CCCN=C(N)N[N+](=O)[O-]` [D-NAME, Nw-nitro-D-arginine methyl ester], in data set [1], the “systemic changes (palsies, coat, dyspnoea, death, post mortem lesions)” value is reported as “failed to display any of the above changes”. Further, the increase of weight in data set [2] was 30%.

With `O=C(O)CN(CCOCCOCCN(CC(=O)O)CC(=O)O)CC(=O)O` [EGTA], the “inhibition of endotoxin-induced NO2- production” value in data set [3] was “not inhibited”.

For `COC(=O)[C@@H](N)CCCNC(=N)N[N+](=O)[O-]` [L-NAME, Nw-nitro-L-arginine methyl ester], the “inhibition of endotoxin-induced NO2- production” value in data set [3] is recorded as “completely inhibited”. In addition, in data set [1] (day 21, group of eight rats), the rats that died result is “Two”. The “post mortem examination findings” value in data set [1] (day 22, all rats) was “scant body fat, empty small intestines, myocardial lesions consistent with infarction and granular kidneys”. In data set [1] (from day 15), the “rats that developed severe dyspnoea” value is recorded as “⅝”. For the same molecule, the “coat and peri-orbital changes” value in data set [1] (from day 15, all rats) is “lost coat texture and developed peri-orbital rubor”. Besides, the “rats that developed motor palsies of upper or lower limbs” value in data set [1] (from day 15, group of eight rats) is recorded as “Four out of the eight”. The “behavior and walking speed” value in data set [4] (after day 11) is recorded as “progressively quieter, slower”. The “systemic change: walking speed” value in data set [4] (setting [6]) is “loss of walking speed”. The “behavior or walking speed” value in data set [4] (first week of treatment) was “no changes”. Also, the “distance separating the cut ends of the healing tendon (5-8 mm)” value in data set [5] is reported as “did not change”. Moreover, the “microscopic appearance of the healing tissue (light microscopy)” value in data set [5] (L-NAME versus D-NAME fed rats) is “no subjective differences”. Also, the “failure load of uninjured Achilles tendon constructs” value in data set [5] (day 7) is “unaffected”. In data set [5] (day 7, given orally 1 mg/ml in drinking water from four days prior to surgery, p<0.01 vs D-NAME), the “inhibition of cross-sectional area of healing Achilles tendon” value (shortened to “inhibition … of healing Achilles tendon”) is 30%. In addition, the “reduction in failure load on the formerly divided side” value in data set [5] (day 7, p<0.01) worked out at 24%. The “inhibition … of healing Achilles tendon” value in data set [5] (day 15, given orally from four days prior to surgery, p<0.001) worked out at 50%. Also, in data set [5] (day 22, given orally from four days prior to surgery, p<0.05), the “inhibition … of healing Achilles tendon” value turned out to be 17%. Besides, in data set [5] (setting [6]), the failure load entry is “failed to show any changes” and the tendon cross-sectional area entry is recorded as “failed to show any changes”. The “toe displacement, maximum displacement, stiffness, energy, modulus or maximum stress of surgically divided or uninjured Achilles constructs” value in data set [5] (rat, in vivo) is “did not affect”. The “body weight over the first 15 days of treatment” value in data set [2] (1 mg/ml in drinking water) was “either failed to gain weight or lost weight”. Moreover, the “lighter than initial preoperative weight” value in data set [2] (by day 22, p<0.001) came to 30%. Moreover, in data set [2] (day 22, p<0.01), the “loss in dry muscle weight (right triceps)” value was found to be 40% and the “loss in wet muscle weight (right triceps)” value is on record as 30%. The “systemic change: weight” value in data set [2] (setting [6]) is “weight loss”.

Consider `N=C(N)NCCC[C@H](N)C(=O)O` [L-arginine], for which, in data set [1], the “systemic changes (palsies, coat, dyspnoea, death, post mortem lesions)” value is given as “failed to display any of the above changes”. Moreover, in data set [5], the “distance separating the cut ends of the healing tendon (5-8 mm)” value was “did not change”. Besides, in data set [2] (day 22), the “effect on muscle weight” value is given as “no effect”. In data set [2], this molecule showed an increase of weight of 30%.

Consider IL-1β: inflammatory mediator, for which the “release of NO2-” value in data set [3] was 100 nmol NO2^−/106 cells/24 hours.

For TNF-α, the “release of NO2-” value in data set [3] is listed as 100 nmol NO2^−/106 cells/24 hours.
